Assays:
[1] = system: eastern tent caterpillar colonies; assay: Field colony disruption by blanket spraying trees with pheromone-mimic; format: in vivo, Malacosoma americanum
Method: (§1) Three experiments were conducted, all employing the following protocol. Trees in the experimental plot were divided into two groups. Trees in one group were sprayed with a 1 part per million (ppm) pheromone-mimic formulation and trees in another group were sprayed with a control solution identical to the pheromone mimic formulation except that it lacked the pheromone-mimic. Egg masses were attached to each tree and the fate of the colonies determined by observation.
(§2) In the second experiment, ten control colonies of the eastern tent caterpillar on apple trees survived and thrived while all of ten colonies on treated trees were destroyed within one week. […] While the exact fate of caterpillars on the treated trees is unknown, they most likely succumbed to a combination of weather related factors, starvation, predation, and falls from the trees.

tent caterpillars = assay: Threshold sensitivity to a narrow line of compound on a paper card; format: in vivo, Malacosoma spp.; conditions: compound laid out in a narrow line on a paper card
Method: (§3) The threshold sensitivity of tent caterpillars to 5β-cholestan-3-one laid out in a narrow line on a paper card was determined to be approximately 10^−11 g/mm. Field tests were conducted by using the compound to form artificial trails that intersected well established, authentic trunk trails of colonies of 3rd-5th instar ETCs. In 19 of 23 replicates of these tests, each involving a different colony, colonies abandoned their authentic trail systems and followed the pathways marked with 5β-cholestan-3-one. […] Other studies indicate that the authentic trail pheromone of the tent caterpillar (Malacosoma spp.) may differ subtly from 5β-cholestan-3-one. Thus, 5β-cholestan-3-one is best considered an analog, or pheromone mimic of the authentic tent caterpillar pheromone.

[2] = system: forest tent caterpillar colonies; assay: Field colony disruption by blanket spraying trees with pheromone-mimic; format: in vivo, Malacosoma disstria; conditions: third experiment; ash trees; 1 ppm spray; within one week
Method: as §1, §2

[3] = system: colonies of 3rd-5th instar ETCs; assay: Field test: artificial trails intersecting authentic trunk trails of colonies; format: in vivo, Malacosoma americanum
Method: as §3

`CC(C)CCC[C@@H](C)[C@H]1CC[C@H]2[C@@H]3CC[C@@H]4CC(=O)CC[C@]4(C)[C@H]3CC[C@]12C` [5β-cholestan-3-one] was tested, and the “fate of the remaining treated colonies” value ([1]; first experiment, cherry trees, 1 ppm spray, three remaining colonies) was “eventually died out”, the “treated colonies completely destroyed” value ([1]; first experiment, cherry trees, 1 ppm spray, within several days) was “seven of ten” and the “colonies on treated trees destroyed” value ([1]; second experiment, apple trees, 1 ppm spray, within one week) was “all of ten”. For the same molecule, the “disrupting the communicative system of the ETC” value ([1]; solution containing 1 ppm) was “effective”, the “threshold sensitivity of tent caterpillars” value (tent caterpillars) was “approximately 10^−11 g/mm” and the “colonies on treated trees perished” value [2] was “all of fifteen”. For the same molecule, the “replicates in which colonies abandoned their authentic trail systems and followed the marked pathways” value ([3]; field, each replicate a different colony of 3rd-5th instar ETCs) was 19 of 23 and the “competitiveness with authentic recruitment trails of the caterpillar” value ([3]; in vivo) was “fully competitive”.

Reference: patent US20060228388A1, “Method for controlling an insect species using a synthetic trail pheromone mimic” (priority 2005, published 2006)
